# Where two headings read alike, the source gives them in different places.
# Target: T1, Or22a and Or83b (Drosophila melanogaster, UniProt P81909+Q9VNB5)
# T1 construct: expressed in transfected cells; host or cells: HEK293
# T1 sequence (P81909 1-397): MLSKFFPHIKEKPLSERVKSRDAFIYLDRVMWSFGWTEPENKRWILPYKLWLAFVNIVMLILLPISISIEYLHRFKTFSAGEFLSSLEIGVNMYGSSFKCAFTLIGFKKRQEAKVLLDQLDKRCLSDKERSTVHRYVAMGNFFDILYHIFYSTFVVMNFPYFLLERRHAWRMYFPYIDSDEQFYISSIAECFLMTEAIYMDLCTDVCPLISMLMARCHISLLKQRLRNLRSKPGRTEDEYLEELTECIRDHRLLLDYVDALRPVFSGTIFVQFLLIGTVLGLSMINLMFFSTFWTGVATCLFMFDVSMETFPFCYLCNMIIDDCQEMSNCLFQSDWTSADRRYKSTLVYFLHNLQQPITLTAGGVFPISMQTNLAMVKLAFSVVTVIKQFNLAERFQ
# T1 sequence (Q9VNB5 1-486): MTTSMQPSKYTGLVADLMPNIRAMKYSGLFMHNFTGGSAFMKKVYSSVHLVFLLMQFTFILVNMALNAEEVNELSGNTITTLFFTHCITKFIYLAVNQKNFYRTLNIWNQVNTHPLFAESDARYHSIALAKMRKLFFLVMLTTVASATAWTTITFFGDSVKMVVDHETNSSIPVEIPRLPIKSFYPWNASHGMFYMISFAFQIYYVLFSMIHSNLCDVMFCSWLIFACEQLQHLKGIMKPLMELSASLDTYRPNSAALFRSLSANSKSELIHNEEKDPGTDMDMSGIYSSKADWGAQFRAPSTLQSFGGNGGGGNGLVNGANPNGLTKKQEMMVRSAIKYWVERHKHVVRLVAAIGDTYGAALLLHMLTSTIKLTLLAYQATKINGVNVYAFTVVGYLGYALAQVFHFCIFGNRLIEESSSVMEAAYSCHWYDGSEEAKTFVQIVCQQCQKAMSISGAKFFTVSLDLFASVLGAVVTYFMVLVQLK
# Assay: Whole-cell patch-clamp of currents in HEK293 cells coexpressing Or22a and Or83b
# Format: cell-based
# Protocol: In some experiments we transfected cells with pcDNA3-DOR22a-GFP or pcDNA3-DOR83b-GFP alone. We also examined the properties of DOR47a, which was cloned, using standard molecular biology methods into a pcDNA3.1(-) expression vector. To test for putative G-protein coupling, cells were transfected with the respective OR-DNA together with 1.5 µg hHCN2/pcDNA3 (provided by M. Biel, Munich, Germany), with 1 µg hKCNQ4/pcDNA3.1 or with 1 µg hCNGA2/pCMV6-XL4 (Origene, Rockville, MD, USA).
# In brief, ion currents in HEK293 cells were measured at room temperature using whole-cell patch-clamp with appropriate compensation of series resistance and of capacitive currents. Additional experiments were performed in the outside-out configuration. Current measurements and data acquisition were performed using an EPC9 patch-clamp amplifier controlled by PatchMaster software (both HEKA Elektronik, Lambrecht, Germany). Patch-clamp pipettes were fabricated from borosilicate capillaries. Pipettes for whole-cell recordings had resistances of 2-4 MΩ for excised-patch recordings the pipette resistance was up to 15 MΩ.
# To differentiate between ionotropic and metabotropic pathways of receptor activation (Fig. 2a-d) the pipette solution contained either 2 mM ATP plus 2 mM GTP or 2 mM ADP plus 2 mM GDP (both for whole-cell and outside-out configuration). For the preparation of Cl^--free solutions the chloride salts were substituted by gluconate salts. The pipette Cs^+ solution contained (in mM) 140 CsCl, 1 Mg-ATP, 10 EGTA, 10 HEPES (pH = 7.3), and the Cs^+ bath solution contained (in mM) 140 CsCl, 15 glucose, 15 HEPES (pH = 7.4). The Ca^2+-free bath solution contained (in mM) 140 NaCl, 15 glucose, 15 HEPES, and the Na^+-free bath solution contained (in mM) 140 NMDG-Cl, 10 CaCl2, 10 glucose, 15 HEPES.
# With the exception of GDP-γ-S, which was applied via the patch pipette, all substances were applied to the bath using either a bath perfusion system (BPS4 from ALA, New York, USA) or a rapid solution changer (RSC160 from Biologic, Claix, France) which were controlled by the PatchMaster software (HEKA Elektronik).
# [1] = Etb 100 nM, 1 s, whole-cell, -60 mV, Or22a C-terminal GFP fusion protein, ADP and GDP (-)
# [2] = Etb 100 nM, 1 s, whole-cell, -60 mV, Or22a C-terminal GFP fusion protein, ATP and GTP (+)
# [3] = Etb 100 nM, 1 s, whole-cell, -60 mV, Or22a N-terminal GFP fusion protein, ADP and GDP (-)
# [4] = Etb 100 nM, 1 s, whole-cell, -60 mV, Or22a N-terminal GFP fusion protein, ATP and GTP (+)
# [5] = short Etb application, whole-cell, -60 mV, Tab. 1
# [6] = short Etb application, whole-cell, -60 mV, internal ATP and GTP, Tab. 1
compound,measurement,setting,value
"CCCC(=O)OCC [Etb, ethyl butyrate]",further increase of current,100 µM Etb after stimulation with 100 µM 8-bromo-cAMP,+1.6 ± 3.8 % of current induced by 8-bromo-cAMP
same,Etb-induced current in symmetrical Cs+ solutions,"140 mM Cs+ in pipette and bath solution, n = 6",No current was detected
same,EC50,"EC50 of Etb-induced currents, 500 µM GDP-β-S in the pipette, n = 11",70 nM
same,latency of Ii,"Etb 100 nM, 1 s, whole-cell, -60 mV",< 0.5 s
same,Ii Decay time,[1],10.8 ± 0.6 s
same,Ii Peak size,[1],133 ± 51 pA
same,Ii Peak time,[1],1.13 ± 0.02 s
same,Im Decay time,[1],68 ± 8 s
same,Im Latency,[1],18 ± 8 s
same,Im Peak size,[1],77 ± 7 PA
same,Im Peak time,[1],43 ± 9 s
same,Ii Decay time,[2],10.5 ± 0.7 s
same,Ii Peak size,[2],100 ± 23 pA
same,Ii Peak time,[2],1.10 ± 0.03 s
same,Im Decay time,[2],79 ± 5 s
same,Im Latency,[2],10 ± 2 s
same,Im Peak size,[2],291 ± 54 PA
same,Im Peak time,[2],58 ± 4 s
same,Ii Decay time,[3],10.4 ± 0.9 s
same,Ii Peak size,[3],132 ± 38 pA
same,Ii Peak time,[3],0.90 ± 0.17 s
same,Im Decay time,[3],63 ± 9 s
same,Im Latency,[3],24 ± 5 s
same,Im Peak size,[3],51 ± 6 PA
same,Im Peak time,[3],44 ± 6 s
same,Ii Decay time,[4],10.2 ± 0.9 s
same,Ii Peak size,[4],98 ± 23 pA
same,Ii Peak time,[4],1.16 ± 0.06 s
same,Im Decay time,[4],80 ± 8 s
same,Im Latency,[4],11 ± 3 s
same,Im Peak size,[4],311 ± 51 PA
same,Im Peak time,[4],62 ± 9 s
same,Hill coefficient of olfactory receptor current (ORC),"cells coexpressing Or22a, Or83b and hKCNQ4, n = 6",0.41
same,EC50,"cells coexpressing Or22a, Or83b and hKCNQ4, normalized to maximum response, n = 6, read-out: EC50 of olfactory receptor current (ORC)",0.256 nM
same,Hill coefficient of Etb-induced currents,"control conditions, n = 9",0.61
same,EC50,"control conditions, n = 9, read-out: EC50 of Etb-induced currents",0.677 nM
same,EC50,"half-maximal effect (current size), metabotropic current response",~0.7 nM
same,odorant concentration at which current size saturates,"metabotropic current response, Fig. 2f",about 100 nM
same,odour-induced current in Cl^--free solutions,n = 5,remained unchanged
same,Ii peak,[5],1 s
same,Ii termination,[5],10 s
same,Im Latency,[6],10 s
same,Im peak,[6],60 s
same,Im termination,[6],80 s

# — patent EP2108954A1, “A test system for detecting intracellular cyclic nucleotide level and methods and uses thereof” (Max-Planck-Gesellschaft zur Förderung der Wissenschaften …, priority 2008, dated 2009)
